Test results as given in patent publication US6403777B1, “Metalloligands for cleaving nucleic acids” (The Ohio State University Research Foundation, priority 1999, dated 2002).

Tests used:
Plasmid DNA [1] = experiment: Non-specific plasmid DNA cleavage under oxidizing conditions; assay type: biochemical; details: for cleavage of DNA without metalloligand: no metalloligand
Protocol: Plasmid DNA at a concentration of 50 μM, bp was added to a reaction solution containing 20 mM HEPES, pH 7.3, and the metalloligands of Examples 1-4 and the reducing agent ascorbic acid. […] The metalloligands of examples 1 to 4 also degraded plasmid DNA completely in the presence of 10 μM H2O2.
However, superoxide dismutase (SOD) and NaN3 inhibited oxidative DNA cleavage mediated by Cu(kanamycin A). Accordingly, it is believed that activated oxygen species (such as O2^− or ^1O2) are involved in plasmid cleavage when the metalloligand and the substrate DNA are reacted under oxidizing conditions.

R23 RNA [2] = details: cited from earlier work
linear oligo (A12-18) = experiment: Cleavage of linear oligo (A12-18); details: similar reaction conditions as R23
Plasmid DNA [3] = experiment: Non-specific plasmid DNA cleavage (hydrolytic conditions), gel electrophoresis; assay type: biochemical
Protocol: The appearance of open circular DNA (form II) and the disappearance of supercoiled DNA (form I) was monitored via gel electrophoresis.
Metalloligands comprising the transition metal ions Fe, Mn, Co, and Ni were formed by mixing a 10 μM solution of the salts FeSO4, MnCl2, CoSO4, and NiCi2, and an equivalent volume of 10 μM kanamycin A for 12 h at 35 ° C. Complex formation was monitored by thin layer chromatography, using PrOH:Me2CO:NH4OAc (20%(aq)) (1:1:5:0.025) on silica gel plates. […]

R23 RNA [4] = experiment: Specific cleavage of 23-mer R23 RNA, FPLC analysis; assay type: biochemical
Protocol: The metalloligand is added to a sample containing substrate RNA with the recognized binding motif. Preferably, the RNA is in an aqueous solution having a pH of from about 7 to about 8. Preferably, the reaction is conducted at a temperatures ranging from 4° C. to about 40° C.

[5] = Stability of the metalloligands in aqueous solution; details: purified complex
R23 RNA [6] = experiment: Cleaving R23 RNA at select sites under oxidizing conditions; assay type: biochemical
Protocol: Uniformly labeled R23 RNA was incubated at 37° C. for 1 hr with various concentrations of Cu(kanamycin A) in the presence and absence of the co-reactants H2O2 and ascorbate. Cleavage products were separated on a denaturing polyacrylamide gel. […] These sites are depicted in FIG. 1. […] RNA cleavage of 30% was observed by FPLC with 1 nM Cu(kanamycin A) after incubation at 37° C. for 1 hour. Cleavage efficiencies of approximately 25% were obtained for solutions containing 50 pM Cu(kanamycin A) and 100 μM ascorbate or 1 μM H2O2 following incubation for 2 h at 37° C. Thus, Cu(kanamycin A) is able to selectively cleave RNA at physiological pH and under mild oxidizing conditions.

poly(C) = experiment: Cleavage of poly(C); details: similar reaction conditions as R23

[Cu+2] [Cu^2+(aq), reference compound]
cleavage of DNA without metalloligand (Plasmid DNA [1]; Cu2+ and ascorbate): did not occur | cleavage of DNA without metalloligand (Plasmid DNA [1]; Cu2+(aq) alone): did not occur

NC[C@@H]1O[C@H](O[C@H]2[C@@H](O)[C@H](O[C@@H]3[C@@H](O)[C@H](N)C[C@H](N)[C@H]3O[C@H]3O[C@H](CN)[C@@H](O)[C@H](O)[C@H]3N)O[C@@H]2CO)[C@H](N)[C@@H](O)[C@@H]1O [neomycin B]
binding affinity to R23 RNA (R23 RNA [2]): high binding affinity

Cu(kanamycin A)
cleavage of linear oligo (A12-18) (linear oligo (A12-18)): no cleavage | conversion of supercoiled DNA to linear form (Plasmid DNA [1]; 5 nM complex, 10 μM ascorbate, supercoiled DNA 51 μM base pair): Complete conversion | effect of hydroxy radical quenchers on oxidative DNA cleavage (Plasmid DNA [1]; DMSO and EtOH): did not inhibit | effect of SOD and NaN3 on oxidative DNA cleavage (Plasmid DNA [1]; superoxide dismutase (SOD) and NaN3): inhibited | nicking of plasmid DNA (Plasmid DNA [3]; 500 nM complex, 5 minutes, plasmid DNA 50 μM bp, 20 mM HEPES pH 7.3): At least some DNA was nicked | time to complete degradation of plasmid DNA (Plasmid DNA [3]; 1 μM complex, plasmid DNA 50 μM bp, 20 mM HEPES pH 7.3): ≤ 1 h | effect of quenchers on DNA cleavage (Plasmid DNA [3]; addition of SOD, NaN3, DMSO, EtOH): not inhibited | effect of excess metal-free aminoglycoside on DNA cleavage (Plasmid DNA [3]; addition of excess metal-free aminoglycoside): inhibited cleavage | DNA cleavage under anaerobic conditions (Plasmid DNA [3]; argon atmosphere): not inhibited | cleavage of structured 23 mer RNA (R23 RNA [4]; 10 nmol complex, pH 7.3, 37 °C, 90 minutes): Good results | hydrolysis of R23 RNA (R23 RNA [4]; 20 nM complex, 23-mer RNA 30 μM base pair, 90 minutes, 20 mM HEPES pH 7.3, FPLC): 54% | hydrolysis efficiency of R23 RNA (R23 RNA [4]; 100 nM complex instead of 20 nM): Hydrolysis efficiency increased | stability in aqueous solution [5]: stable in aqueous solution for more than one day | cleavage efficiency (R23 RNA [6]; 50 pM complex, 100 μM ascorbate or 1 μM H2O2, 2 h, 37 °C): approximately 25% | RNA cleavage (R23 RNA [6]; 1 nM complex, 37 °C, 1 hour, FPLC): 30% | sites of cleavage in R23 RNA (R23 RNA [6]; 37 °C, 1 hr, presence and absence of H2O2 and ascorbate, denaturing polyacrylamide gel): one in the loop region at G^15 and the other in the stem region at C^4 | degradation of target RNA (R23 RNA [6]; nanomolar complex, 100 μM ascorbate or 1 μM H2O2): extremely efficient degradation | cleavage of poly(C) (poly(C)): no cleavage

Cu(kanamycin A)2
concentration at which plasmid DNA was cleaved (as low as) (Plasmid DNA [3]): 100 nM

Cu(neamine)
time to appearance of open circular DNA (form II) (Plasmid DNA [3]; 0.1 μmolar complex, plasmid DNA 50 μM bp, 10 mM HEPES pH 7.3, 37 °C): within less than one hour | stability in aqueous solution [5]: stable in aqueous solution for more than one day

Cu(neomycin B)
concentration at which plasmid DNA was cleaved (as low as) (Plasmid DNA [3]): 100 nM
